Source: PubChem BioAssay (NCI)
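Assay format: 96-well plates, 48-hour exposure. TGI: concentration producing complete growth inhibition.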

Tests used:
Assay in all cases: DTP human tumour cell line panel, 48 h
[1] = tested on: A549 NSCLC
[2] = tested on: CAKI-1 renal
[3] = tested on: CCRF-CEM leukemia
[4] = tested on: DU-145 prostate
[5] = tested on: HCC-2998 colon
[6] = tested on: M14 melanoma
[7] = tested on: MCF7 breast
[8] = tested on: MDA-MB-231 breast
[9] = tested on: NCI-H23 lung
[10] = tested on: NCI-H460 lung
[11] = tested on: SF-539 CNS
[12] = tested on: SK-OV-3 ovarian
[13] = tested on: SN12C renal
[14] = tested on: SNB-19 CNS
[15] = tested on: SNB-75 CNS
[16] = tested on: SW-620 colon
[17] = tested on: TK-10 renal
[18] = tested on: UACC-62 melanoma
[19] = tested on: UO-31 renal

SMILES	TGI [1] [µM]	TGI [2] [µM]	TGI [3] [µM]	TGI [4] [µM]	TGI [5] [µM]	TGI [6] [µM]	TGI [7] [µM]	TGI [8] [µM]	TGI [9] [µM]	TGI [10] [µM]	TGI [11] [µM]	TGI [12] [µM]	TGI [13] [µM]	TGI [14] [µM]	TGI [15] [µM]	TGI [16] [µM]	TGI [17] [µM]	TGI [18] [µM]	TGI [19] [µM]
O=[N+]([O-])C1=Cc2c(O)ccc(O)c2C2c3ccccc3NC12 (centres undefined)	37.5	8.99	> 22.7	> 54	24.7	28.2	11.8	31.4	15.8	33.5	63	> 100	30.9	34.5	> 61.3	> 47.1	30	22.7	11.8
Cc1ccc(Nc2nc3ccccc3nc2NS(=O)(=O)c2ccc(N)cc2)cc1	> 100	> 100	70.7	> 100	6.55	> 100	> 100	> 100	16.2	> 100	> 100	> 100	> 100	> 100	> 100	> 100	> 100	> 100	65.5
CC(C)=CCN1c2ccccc2[C@@]2(CC=C(C)C)CCN(C)[C@@H]12	> 100	> 100	> 100	> 100	29.5		34.4	> 100	> 100	30.4	64.9	77.1	> 100	52.6	> 100	> 100	> 100	34.8	41.8
FC(F)(F)c1ccc2c(c1)nc(Cc1ccc(Cl)cc1)n2CC1CCCN2CCCCC12 (centres undefined)	25.1	30.4		21.6	10.5	4.91	21.8	13.1		20.7		24.1	21.4	26.9	14	27.4	24.7	10.1	0.0985
COc1cc(Nc2nc(NS(=O)(=O)c3cc(C)c(Cl)cc3S)n[nH]2)cc(OC)c1OC	> 100	> 100	> 100	> 100	> 100	> 100	> 100	> 100	> 100	> 100	> 100	> 100	> 100	> 100	> 100	> 100	> 100	> 100	> 100
C/C(=N\NC(N)=O)C(CN1CCOCC1)C(c1ccccc1)c1c(O)c2ccccc2oc1=O (centres undefined)	> 100	> 100	> 100	> 100	> 100	> 100	> 100	> 100	> 100		> 100	> 100		> 100	> 100	> 100	> 100	> 100	> 100
CN(C)CCC(C#N)(c1ccccc1)c1ccccc1	> 100	> 100		> 100	34.1	50	> 100	> 100	> 100	> 100	> 100	> 100	> 100	> 100	> 100	> 100	> 100	> 100	> 100
CC(C)CCNC(=O)c1ccc(CNC(=O)/C=C/c2ccc3c(c2)-c2ccccc2C3)cc1	> 100	78.9	> 100	> 100	> 100	> 100	> 100	> 100	> 100	> 100	> 100	> 100	> 100	> 100	53.3	> 100	> 100	> 100	> 100
O=C1C(CN2CCCC2)CCC1CN1CCCC1 (centres undefined)	> 100	24.6	> 60.1	> 100	> 100	29.7	39.3	26.7	38.2	> 100	35.3	> 100	> 53	> 100	33.4	11	32.6	32.9	32.1
CCOC(=O)c1cn2c(n1)sc1cc([N+](=O)[O-])ccc12	> 100	> 100	> 100	> 100	> 100	> 100	> 100	> 100	> 100	> 100	> 100	> 100	> 100	> 100	> 100	> 100	> 100	> 100	> 100
COC(=O)[C@@H](N1C(=O)c2ccccc2C1=O)C1(C)CC(Cl)=NO1 (some centres undefined)	> 100	83.7	> 100	> 100	> 100	> 100	> 100	60.3	> 100	> 100		> 100	> 100	56.2	35.9	> 100	82.4	> 100	> 100
COc1ccc(CC(COS(=O)(=O)c2ccc(C)cc2)NS(=O)(=O)c2ccc(C)cc2)cc1 (centres undefined)	> 62.2	> 60.8		28.9	29.5	29.6	> 69.7	> 84.5	40.8	55.2	> 100	43.7	36.1	32.6	28.4	27	43.6	43.8	40.2
N#CC(C#N)=CNC(=S)Nc1ccc(S(=O)(=O)Nc2nccs2)cc1	> 100	> 100		> 100	> 100	> 100	> 100	> 100	> 100	> 100	> 100	> 100	> 100	> 100	> 100	> 100	> 100	> 100	> 100
O=C1C/C(=C\c2ccccc2)C(=O)c2ccccc2N1	56.9	33.1	49.8	59.4	37.9	44.1	> 100	49.7	48.1	62	39.4	68	34.8	30.7		40.7	54.7	40.5	
CC(C)c1cc(C(C)C)c(S(=O)(=O)N/N=C2\CC3CCC2(C)C3(C)C)c(C(C)C)c1 (centres undefined)	> 100	> 100	22.8	> 100	> 100	> 100	30.7	> 100	> 100			> 100	38.2	> 100		> 100	> 100	> 100	> 100
COc1cc(N(CCC#N)CCC#N)ccc1/C(N=Nc1cccc([N+](=O)[O-])c1)=N\NC(=O)c1ccc(C)cc1	> 100	> 100	99.2	> 100	> 100	> 100	> 100	> 100	> 100	70.5		> 100	> 100	> 100		> 100	> 100	> 100	> 100
CCOC(=O)c1c2ccccc2n2c(=O)n(-c3ccccc3)nnc12	> 100	> 100	> 69.5	> 100	> 100	> 100	> 100	> 100	> 100	> 100	> 100	> 85	> 100	> 100	89.5	> 100	> 100	> 100	> 100
Cn1c2ccccc2n2c3ccccc3c3nnc(N)c-3c12	> 100	> 100	> 100	> 100	> 100	> 100	> 74.7	> 100	> 100	> 100		> 100	10	25.5	11.8	> 100	> 100	> 100	> 100
COc1ccc(CCN2C(=O)C(=O)C(C(=O)c3ccccc3)C2c2ccccc2)cc1OC (centres undefined)	> 100	> 100	> 100	> 100	> 100	> 100	> 100	> 100	> 100	> 100	> 100	> 100	> 100	> 100		> 100	> 100	> 100	> 100
COC(=O)c1nc2n(n1)-c1ccccc1C(=O)N(Cc1ccccc1)C2	> 100	> 100	> 100	> 100	> 100	> 100	> 100	> 100	> 100	> 100	> 100	> 100	> 100	> 100		> 100	> 100	> 100	> 100
COc1cc(OC)cc(Oc2nc3ccc(C(F)(F)F)cc3nc2-c2ccccc2)c1	> 100	> 100	> 100	> 100	> 100		> 100	> 100	> 100	> 100	> 100	> 100			> 100	> 100	> 100	> 100	> 100
CC(=O)OCC1OC(NC(=S)Nn2c(-c3ccccc3)nc3ccccc3c2=O)C(OC(C)=O)C(OC(C)=O)C1OC(C)=O (centres undefined)	> 100	> 100	> 100	> 100	> 100	> 100	> 100	> 100	> 100	> 100	> 100	> 100	> 100	> 100	> 100	> 100		> 100	> 100
CC(=O)OCCn1c(Cc2ccc(Cl)cc2)nn(C(C)=O)c1=O	> 100	> 100	> 100	> 100	> 100	> 100	> 100	> 100	> 100	> 100	> 100	> 100	> 100	> 100		> 100	> 100	> 100	> 100
CC1=C(C(N)=O)C(c2ccncc2)C(C#N)C(=O)N1 (centres undefined)		> 100	> 100	> 100	> 100	> 100	> 100	> 100	> 100	> 100	> 100	> 100		> 100	> 100	> 100	> 100	> 100	> 100
C(#C[C@@]12CCC[C@@H]1NCO2)c1ccc2c(c1)OCO2	> 100	> 100	> 100	> 100	34.6	73.1	> 100	> 100	> 100	> 100	> 100	> 100		> 100	> 100	> 100	> 100	> 100	> 100
C=C1C(=O)O[C@H]2[C@@H]3O[C@@](C)(CC/C=C(\C)CCC[C@@H]2C)[C@H](O)C[C@@H]13	24.9	4.53	81.5	27.2	31.6	5.86	15.6	21.6	2.96		5.6	32.5	8.15		30.7	> 100	17.4	20.9	11.9
